Several values for one entry are separate records, joined by “and”; a condition that tells them apart may be missing. Equal values may be shown once. Toxic doses and inconclusive results are not listed. No stated cut-off is given here; in the data, active means T/C of 150% or more; inactive means T/C below 125%.
Tested on: L1210 leukemia ip in BDF1 mice, survival T/C
Test: NCI In Vivo Anticancer Drug Screen. Data for tumor model L1210 Leukemia (intraperitoneal) in B6D2F1 (BDF1) mice
Settings: endpoint: mean survival time, higher = longer survival
Outline: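 Survival endpoint. Drug-treated group vs vehicle group, expressed as T divided by C. Tumor passaged by transplantation.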

[1] = dose: 100.0 mg/kg/injection, schedule: Q01DX009 (ip), vehicle: Klucel (hydroxypropylcellulose) (HPC)
[2] = dose: 100.0 mg/kg/injection, schedule: Q04DX003 (ip), vehicle: Klucel (hydroxypropylcellulose) (HPC)
[3] = dose: 200.0 mg/kg/injection, schedule: Q01DX009 (ip), vehicle: Klucel (hydroxypropylcellulose) (HPC)
[4] = dose: 200.0 mg/kg/injection, schedule: Q04DX003 (ip), vehicle: Klucel (hydroxypropylcellulose) (HPC)
[5] = dose: 400.0 mg/kg/injection, schedule: Q01DX009 (ip), vehicle: Klucel (hydroxypropylcellulose) (HPC)
[6] = dose: 400.0 mg/kg/injection, schedule: Q04DX003 (ip), vehicle: Klucel (hydroxypropylcellulose) (HPC)
[7] = dose: 50.0 mg/kg/injection, schedule: Q01DX001 (ip), vehicle: saline
[8] = dose: 100.0 mg/kg/injection, schedule: Q01DX001 (ip), vehicle: saline

Measured: T/C

O=C(COc1ccc(Cl)cc1)Nc1cccc(C(F)(F)F)c1
inactive: [1] 96 % of control | [2] 102 % of control | [3] 89 % of control | [4] 93 % of control | [5] 91 % of control | [6] 93 % of control

O=C(CC(=O)Oc1ccc(Cl)cc1Cl)Oc1ccc(Cl)cc1Cl
inactive: dose: 100.0 mg/kg/injection, schedule: Q01DX009 (ip), vehicle: saline with Tween-80 93 % of control | dose: 200.0 mg/kg/injection, schedule: Q01DX009 (ip), vehicle: saline with Tween-80 90 % of control | dose: 400.0 mg/kg/injection, schedule: Q01DX009 (ip), vehicle: saline with Tween-80 95 % of control

Nc1ccc(/C=C/c2ccnc3ccccc23)cc1
inactive: dose: 0.5 mg/kg/injection, schedule: Q01DX015 (ip), vehicle: saline 101 % of control | dose: 1.0 mg/kg/injection, schedule: Q01DX015 (ip), vehicle: saline 101 % of control | dose: 2.0 mg/kg/injection, schedule: Q01DX015 (ip), vehicle: saline 101 % of control | dose: 4.0 mg/kg/injection, schedule: Q01DX015 (ip), vehicle: saline 101 % of control | [7] 95 % of control | [8] 97 % of control | dose: 200.0 mg/kg/injection, schedule: Q01DX001 (ip), vehicle: saline 95 % of control | dose: 400.0 mg/kg/injection, schedule: Q01DX001 (ip), vehicle: saline 105 % of control

C#CCN(CC#C)CC#C
inactive: dose: 25.0 mg/kg/injection, schedule: Q04DX003 (ip), vehicle: saline 103 % of control | dose: 50.0 mg/kg/injection, schedule: Q04DX003 (ip), vehicle: saline 94 % of control

Nc1nc(N)nc(CCCCCc2nc(N)nc(N)n2)n1
inactive: dose: 50.0 mg/kg/injection, schedule: Q01DX001 (ip), vehicle: carboxymethylcellulose (CMC) 93 % of control | dose: 100.0 mg/kg/injection, schedule: Q01DX001 (ip), vehicle: carboxymethylcellulose (CMC) 93 % of control | dose: 400.0 mg/kg/injection, schedule: Q01DX001 (ip), vehicle: carboxymethylcellulose (CMC) 95 % of control

CC(C)(C)C1CN1C(=S)Nc1ccccc1 (stereo unspecified)
inactive: [2] 104 % of control | [4] 105 % of control | [6] 102 % of control

CCN1/C(=C/C=C/C=C/c2sc3ccccc3[n+]2CC)Sc2ccccc21
inactive: dose: 0.04 mg/kg/injection, schedule: Q01DX009 (ip), vehicle: saline 110 % of control | dose: 0.08 mg/kg/injection, schedule: Q01DX009 (ip), vehicle: saline 93 % of control | dose: 0.09 mg/kg/injection, schedule: Q01DX009 (ip), vehicle: saline 117 % of control | dose: 0.09 mg/kg/injection, schedule: Q04DX003 (ip), vehicle: saline 102 % of control | dose: 0.19 mg/kg/injection, schedule: Q01DX009 (ip), vehicle: saline 122 % of control | dose: 0.19 mg/kg/injection, schedule: Q04DX002 (ip), vehicle: saline 102 % of control | dose: 0.19 mg/kg/injection, schedule: Q04DX003 (ip), vehicle: saline 102 % of control | dose: 0.32 mg/kg/injection, schedule: Q01DX009 (ip), vehicle: saline 88 % of control | dose: 0.37 mg/kg/injection, schedule: Q01DX001 (ip), vehicle: saline 95 % of control | dose: 0.38 mg/kg/injection, schedule: Q01DX009 (ip), vehicle: saline 96 % of control | dose: 0.38 mg/kg/injection, schedule: Q04DX002 (ip), vehicle: saline 103 % of control | dose: 0.38 mg/kg/injection, schedule: Q04DX003 (ip), vehicle: saline 105 % of control | dose: 0.39 mg/kg/injection, schedule: Q01DX009 (ip), vehicle: saline 109 % of control | dose: 0.62 mg/kg/injection, schedule: Q01DX001 (ip), vehicle: other 105 % of control | dose: 0.75 mg/kg/injection, schedule: Q01DX001 (ip), vehicle: saline 102 % of control | dose: 0.76 mg/kg/injection, schedule: Q04DX002 (ip), vehicle: saline 107 % of control | dose: 0.76 mg/kg/injection, schedule: Q04DX003 (ip), vehicle: saline 103 % of control | dose: 0.8 mg/kg/injection, schedule: Q01DX001 (ip), vehicle: saline 105 % of control | dose: 1.25 mg/kg/injection, schedule: Q01DX001 (ip), vehicle: other 110 % of control | dose: 1.5 mg/kg/injection, schedule: Q01DX001 (ip), vehicle: saline 105 % of control | dose: 1.5 mg/kg/injection, schedule: Q04DX002 (ip), vehicle: saline 110 % of control | dose: 2.5 mg/kg/injection, schedule: Q01DX001 (ip), vehicle: other 115 % of control | dose: 3.0 mg/kg/injection, schedule: Q01DX001 (ip), vehicle: saline 110 % of control | dose: 5.0 mg/kg/injection, schedule: Q01DX001 (ip), vehicle: other 107 % of control

CN(C)C(=S)Oc1ccc(N)cc1
inactive: [2] 94 % of control | [4] 101 % of control | [6] 94 % of control

Nc1ccccc1-n1cccc1
inactive: dose: 100.0 mg/kg/injection, schedule: Q04DX003 (ip), vehicle: other 100 % of control | dose: 200.0 mg/kg/injection, schedule: Q04DX003 (ip), vehicle: other 113 % of control | dose: 400.0 mg/kg/injection, schedule: Q04DX003 (ip), vehicle: other 100 % of control

CCOc1c(Cl)c(Cl)c(Cl)c(Cl)c1Cl
inactive: [1] 91 % of control | [3] 97 % of control | [5] 91 % of control

Cc1cc(C)c(S(=O)(=O)Nc2cc([N+](=O)[O-])ccc2C)c(C)c1
inactive: [1] 97 % of control | [3] 92 % of control | [5] 92 % of control

COc1ccccc1-n1c(=O)c(N=Nc2ccc(Br)cc2)c(O)n(-c2ccccc2C)c1=S
inactive: dose: 100.0 mg/kg/injection, schedule: Q01DX001 (ip), vehicle: Klucel (hydroxypropylcellulose) (HPC) 109 % of control | dose: 200.0 mg/kg/injection, schedule: Q01DX001 (ip), vehicle: Klucel (hydroxypropylcellulose) (HPC) 98 % of control | dose: 400.0 mg/kg/injection, schedule: Q01DX001 (ip), vehicle: Klucel (hydroxypropylcellulose) (HPC) 98 % of control

O=c1[nH]nc(CF)c(=O)[nH]1
inactive: dose: 5.0 mg/kg/injection, schedule: Q01DX009 (ip), vehicle: saline 107 % of control | dose: 6.0 mg/kg/injection, schedule: Q01DX009 (ip), vehicle: saline 108 % of control | dose: 10.0 mg/kg/injection, schedule: Q01DX009 (ip), vehicle: saline 116 % of control | dose: 11.0 mg/kg/injection, schedule: Q01DX Z (ip), vehicle: saline 111 % of control | dose: 12.0 mg/kg/injection, schedule: Q01DX009 (ip), vehicle: saline 112 % of control | dose: 14.0 mg/kg/injection, schedule: Q01DX009 (ip), vehicle: saline 104 % of control | dose: 16.0 mg/kg/injection, schedule: Q01DX Z (ip), vehicle: saline 111 % of control | dose: 20.0 mg/kg/injection, schedule: Q01DX009 (ip), vehicle: saline 105 % of control and 124 % of control | dose: 24.0 mg/kg/injection, schedule: Q01DX009 (ip), vehicle: saline 122 % of control | dose: 30.0 mg/kg/injection, schedule: Q01DX009 (ip), vehicle: saline 119 % of control | dose: 40.0 mg/kg/injection, schedule: Q01DX009 (ip), vehicle: saline 116 % of control | [7] 110 % of control | [8] 119 % of control

CCc1nc(N)nc(N)c1-c1ccc(N(CCCl)CCCl)cc1
inactive: dose: 13.0 mg/kg/injection, schedule: Q01DX Z (ip), vehicle: methylcellulose (MC) 108 % of control | dose: 20.0 mg/kg/injection, schedule: Q01DX Z (ip), vehicle: methylcellulose (MC) 103 % of control | dose: 30.0 mg/kg/injection, schedule: Q01DX Z (ip), vehicle: methylcellulose (MC) 108 % of control | dose: 45.0 mg/kg/injection, schedule: Q01DX Z (ip), vehicle: methylcellulose (MC) 113 % of control

Reference: PubChem BioAssay AID248 (DTP/NCI, 2004)
